Assay results published in US10188625B2, “Combination of a retinoid and a diol and polyunsaturated fatty acid ester” (PIERRE FABRE DERMO-COSMETIQUE, priority 2015, dated 2019).

What was measured:
[1] = test system: retentional lesions (open and closed comedones); test: Clinical study (open) of creams: count of retentional lesions in subjects with mild to moderate acne; format: in vivo, human; details: topical cream (retinaldehyde 0.1% and/or Compound A 0.6%)
From the text: The clinical trial was an open study involving 60 subjects (men and women) between 12 and 35 years of age with mild to moderate acne for purposes of testing the tolerance and efficacy of Composition 2.
All of the participants initially had more than 10 retentional lesions (open and closed comedones) on their skin (excluding the nasal pyramid).
The cream was applied to the face (clean skin) in the evening by means of gentle massage.
The lesions were counted at T0 (before the first treatment), T3 weeks and T6 weeks according to the method described by Lucky (Lucky AW et al. (1996)).
The clinical trial was an open study involving 29 subjects (men and women) between 12 and 35 years of age with mild to moderate acne for purposes of testing the tolerance and efficacy of cream having the following composition:
All of the participants initially had more than 10 retentional lesions (open and closed comedones) on their skin.
The lesions were counted at T0, T3 weeks and T6 weeks.
The clinical trial was an open study involving 46 subjects (men and women) between 12 and 35 years of age with mild to moderate acne for purposes of testing the tolerance and efficacy of cream having the following composition:
The cream was applied to the face (clean skin) twice per day (morning and evening) by means of gentle massage.

[2] = test system: genes responsible for differentiation in keratinocytes (human skin explants); test: Microarray analysis of differentiation genes in human skin explants treated topically with retinaldehyde; format: cell-based
Protocol: In these experiments, retinaldehyde was applied topically for 24 hours at a concentration of 0.025% dissolved in Myritol on human skin explants (of 3 donors) kept alive in culture medium (Dulbecco's Modified Eagle Medium (DMEM)+10% fetal bovine serum (FBS)). Myritol alone was used as the control. At the conclusion of this treatment, the RNA is extracted, inspected for quality, and analyzed by means of a microarray (Agilent Technology). They are averaged fold-change values below 1.8 (p<0.05). A fold change of −2.00 corresponds to a decrease in gene expression of about 50%.

[3] = test system: keratinocyte proliferation; test: Keratinocyte proliferation; format: cell-based
[4] = test system: genes responsible for differentiation in keratinocytes (human skin explants); test: Microarray analysis of differentiation genes in human skin explants treated topically with retinaldehyde; format: cell-based; details: 0.025% in Myritol, topical 24 hours
[5] = human skin explants (3 donors), control Myritol alone, p 0.115

## CC/C=C\C/C=C\C/C=C\CCCCCCCC(=O)OCC(O)CCCCCC (centres unmarked) [Compound A]
[1]; T = 3 weeks
  Change in mean number of retentional lesions: −6%
[1]; T = 6 weeks
  Change in mean number of retentional lesions: −19%

## CC1=C(/C=C/C(C)=C/C=C/C(C)=C/C=O)C(C)(C)CCC1 [Retinaldehyde, retinaldehyde]
[1]; T = 3 weeks
  Change in mean number of retentional lesions: −23%
[1]; T = 6 weeks
  Change in mean number of retentional lesions: −37%
[2]; 0.025% in Myritol, topical 24 hours, human skin explants (3 donors), control Myritol alone, p 0.009
  Fold change, KRTCAP3 (keratinocyte associated protein 3): −1.81
[2]; 0.025% in Myritol, topical 24 hours, human skin explants (3 donors), control Myritol alone, p 0.012
  Fold change, KRT6A (keratin 6A): −2.83
[2]; 0.025% in Myritol, topical 24 hours, human skin explants (3 donors), control Myritol alone, p 0.015
  Fold change, KRT6C (keratin 6C): −3.61
[2]; 0.025% in Myritol, topical 24 hours, human skin explants (3 donors), control Myritol alone, p 0.016
  Fold change, FLJ46111 (keratin 8 pseudogene): −2.71
[2]; 0.025% in Myritol, topical 24 hours, human skin explants (3 donors), control Myritol alone, p 0.042
  Fold change, EPPK1 (epiplakin 1): −1.60
[2]; conclusion from gene modulation in human skin explants
  effect on keratinocyte differentiation: inhibits keratinocyte differentiation
[3]
  effect on cell (keratinocyte) proliferation: does not increase cell proliferation
[4]; human skin explants
  number of keratins inhibited: 11
  number of targets of terminal keratinocyte differentiation inhibited: 13
[4]; human skin explants (3 donors), control Myritol alone, p 0.004
  Fold change, CNFN (cornifelin): −1.56
[4]; human skin explants (3 donors), control Myritol alone, p 0.027
  Fold change, KRT16 (keratin 16): −2.63
[4]; human skin explants (3 donors), control Myritol alone, p 0.052
  Fold change, CDSN (corneodesmosin): −1.49
[4]; human skin explants (3 donors), control Myritol alone, p 0.056
  Fold change, DSG3 (desmoglein 3): −1.77
[4]; human skin explants (3 donors), control Myritol alone, p 0.058
  Fold change, DSC1 (desmocollin 1): −1.70
[4]; human skin explants (3 donors), control Myritol alone, p 0.070
  Fold change, DSG1 (desmoglein 1): −1.68
[4]; human skin explants (3 donors), control Myritol alone, p 0.072
  Fold change, EVPL (envoplakin): −1.41
[4]; human skin explants (3 donors), control Myritol alone, p 0.091
  Fold change, UPK2 (uroplakin 2): −1.53
[4]; human skin explants (3 donors), control Myritol alone, p 0.095
  Fold change, DSC3 (desmocollin 3): −1.55
[4]; [5]
  Fold change, KRTAP11-1 (keratin associated protein 11-1): −4.68
  Fold change, LCE3A (late cornified envelope 3A): −2.73
[4]; human skin explants (3 donors), control Myritol alone, p 0.271
  Fold change, LCE3D (late cornified envelope 3D): −1.90
[4]; human skin explants (3 donors), control Myritol alone, p 0.288
  Fold change, KRTAP3-1 (keratin associated protein 3-1): −2.09
[4]; human skin explants (3 donors), control Myritol alone, p 0.325
  Fold change, KRT6B (keratin 6B): −1.83
[4]; human skin explants (3 donors), control Myritol alone, p 0.372
  Fold change, KRT27 (keratin 27): −2.66
[4]; human skin explants (3 donors), control Myritol alone, p 0.472
  Fold change, KRT86 (keratin 86): −2.19
